In general, IC50 refers to the concentration that inhibits the measured activity by half.

For one assay, the target named is T1, ASIC3 (Rattus norvegicus, UniProt O35240).
T1 sequence (O35240 1-533): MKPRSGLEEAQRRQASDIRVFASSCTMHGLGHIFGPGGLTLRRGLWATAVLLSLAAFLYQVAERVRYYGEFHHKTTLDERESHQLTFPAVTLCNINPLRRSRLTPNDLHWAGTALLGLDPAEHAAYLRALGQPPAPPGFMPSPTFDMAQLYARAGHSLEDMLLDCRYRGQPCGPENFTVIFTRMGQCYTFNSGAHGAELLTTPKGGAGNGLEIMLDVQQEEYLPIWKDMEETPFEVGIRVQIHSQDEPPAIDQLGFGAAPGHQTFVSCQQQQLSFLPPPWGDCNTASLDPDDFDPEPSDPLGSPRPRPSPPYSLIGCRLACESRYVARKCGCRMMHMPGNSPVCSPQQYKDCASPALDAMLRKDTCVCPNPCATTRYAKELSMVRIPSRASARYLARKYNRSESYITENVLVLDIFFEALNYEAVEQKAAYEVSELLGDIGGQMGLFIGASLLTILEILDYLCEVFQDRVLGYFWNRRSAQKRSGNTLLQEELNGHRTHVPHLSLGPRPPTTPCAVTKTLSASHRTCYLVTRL
The note with it: cited from earlier work.

The target in the next assay is T2, ASIC1b (Rattus norvegicus, UniProt P55926).
T2 sequence (P55926 1-559 isoform P55926-3): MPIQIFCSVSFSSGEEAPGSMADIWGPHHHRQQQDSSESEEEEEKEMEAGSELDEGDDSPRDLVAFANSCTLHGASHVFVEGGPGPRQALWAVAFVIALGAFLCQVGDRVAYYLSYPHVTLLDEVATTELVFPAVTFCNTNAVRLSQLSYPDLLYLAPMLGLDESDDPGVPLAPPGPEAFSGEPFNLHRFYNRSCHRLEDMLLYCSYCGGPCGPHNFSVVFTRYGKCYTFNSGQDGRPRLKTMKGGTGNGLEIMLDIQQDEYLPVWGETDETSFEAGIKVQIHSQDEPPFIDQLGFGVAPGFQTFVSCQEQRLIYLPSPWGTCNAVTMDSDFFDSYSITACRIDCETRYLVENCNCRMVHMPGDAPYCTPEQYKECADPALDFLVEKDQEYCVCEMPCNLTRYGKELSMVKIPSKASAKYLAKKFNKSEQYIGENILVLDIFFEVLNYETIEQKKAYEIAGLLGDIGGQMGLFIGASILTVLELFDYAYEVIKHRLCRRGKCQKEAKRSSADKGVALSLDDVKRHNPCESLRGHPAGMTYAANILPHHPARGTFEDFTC
The note with it: cited from earlier work.

In another assay the target is T3, heteromer ASIC1a+3 (Rattus norvegicus, UniProt O35240+P55926).
T3 sequence (P55926 1-526): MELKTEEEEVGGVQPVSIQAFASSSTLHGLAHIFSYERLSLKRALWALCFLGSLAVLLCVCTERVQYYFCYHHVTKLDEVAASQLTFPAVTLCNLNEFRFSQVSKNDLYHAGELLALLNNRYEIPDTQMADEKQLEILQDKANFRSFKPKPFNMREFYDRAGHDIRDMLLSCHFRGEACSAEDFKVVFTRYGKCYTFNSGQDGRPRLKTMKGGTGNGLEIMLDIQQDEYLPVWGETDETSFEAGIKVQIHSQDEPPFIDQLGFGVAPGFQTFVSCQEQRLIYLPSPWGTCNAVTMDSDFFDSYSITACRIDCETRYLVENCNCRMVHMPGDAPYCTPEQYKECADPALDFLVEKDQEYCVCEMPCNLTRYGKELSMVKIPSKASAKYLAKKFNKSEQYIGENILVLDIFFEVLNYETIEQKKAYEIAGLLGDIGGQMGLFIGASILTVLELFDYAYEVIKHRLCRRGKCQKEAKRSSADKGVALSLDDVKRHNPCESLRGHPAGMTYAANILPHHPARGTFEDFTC
T3 sequence (O35240 1-533): T1 sequence (O35240 1-533)
The note with it: relative to ASIC3 / ASIC2b+3; cited from earlier work.

The test system of assay [1] is cutaneous pain induced by moderate acidification. As to the kind of experiment: Nociceptive behaviour in rats after subcutaneous injection of moderately acidic solutions. The conditions noted are these: FIG. 5A. The assay is classed as in vivo, rat. Here is the method:
Adult (7-8 weeks' old) male Wistar rats (Charles River, France) were placed in plastic cages with a nyctohemeral period of 12 h (with light between 8 a.m. and 8 p.m.) and with free access to food and water. The rats were left to acclimatize for at least one week before the experiments. For the behavioural experiments, the rats were placed in a transparent observation chamber where they were acclimatized for 20-30 minutes. They were subsequently immobilised while 20 μl of saline solution (0.9% or 2% of NaCl+20 mM of HEPES, […] or 60 nM of PcTx1 toxin), was administered subcutaneously to the dorsal side of the right hind paw using a 30G needle connected to a 100 μl Hamilton syringe. The nociceptive behaviour (i.e. the number of hind leg quiverings) was recorded over a 5-minute period, starting immediately after the injection ([ref. 59]).

For assay [2], the system named is thermal hyperalgesia induced by CFA. Description: Inflammation-induced (CFA) thermal hyperalgesia in rats, hotplate at 50° C. Format: in vivo, rat. Here is the method: Sensitivity to heat of adult male Wistar rats (Charles River, France) was tested by measuring the time taken by the animal to retract one of its hind paws when placed on a hotplate at 50° C. (Bioseb, France), before and after induction of inflammation by subcutaneous injection of a solution of Freund's complete adjuvant (CFA, Sigma-Aldrich, France). The rats were acclimatised to the experimentation room for at least 30 minutes and each measurement was performed in duplicate. An initial measurement was performed before induction of inflammation. The rats were subsequently anaesthetised (isofluorane) while 150 μl of CFA diluted 1:1 with a saline solution (0.9% NaCl) containing either toxins (PcTx1 or APETx2, 120 nM and 20 μM, respectively) or the vehicle was injected (26G needle mounted on a 1 ml syringe) subcutaneously into the plantar side of one of the hind paws. The time taken by the animal to lift the injected hind paw was subsequently measured at 50° C., 2, 4 and 24 hours after the injection of CFA.
ASIC3 channel-specific iRNA (no. 1121; CTACACGCTATGCCAAGGA, SEQ ID NO: 1) and its control (no. 1121S; GCTCACACTACGCAGAGAT, SEQ ID NO: 2) were designed in the laboratory and were synthesised by MWG Biotech Company (Germany). The ASIC3-specific iRNA was validated by quantification of the messenger RNA levels by quantitative RT-PCR for each ASIC channel and for the TRPV1 channel, following intrathecal injections into the lumbar region of the spinal cord of rats, at a rate of one injection per day for 3 consecutive days, before the animal was sacrificed. The same procedure was followed before induction of inflammation by CFA. Each injection was 10 μl in volume, containing 2 μg of iRNA mixed with the transfection agent i-Fect (Neuromics) at a ratio of 1 to 4.

As for “peptide of 42 amino acids (SEQ ID NO: 3), three disulphide bonds, from sea anemone Anthopleura elegantissima; blocks ASIC3 [APETx2]”, the “effect on the ASIC3 sustained current” value on ASIC3 (sustained current) is listed as “without affecting”. On ASIC3 (transient current, reversible block, read-out: IC50 for inhibition of the ASIC3 transient current), the IC50 is 0.063 µM. In addition, the “effect on ASIC1b isoform” value on ASIC1b is “does not have any effect”. In addition, the “affinity for the heteromer ASIC1a+3” value at heteromer ASIC1a+3 is “less affinity”. Also, the “behaviour in response to acid pain with inflammatory signals” value in assay [1] (pH 6.9 + 2% NaCl + AA, 10 μM APETx2 or 60 nM PcTx1 in injected solution) is “markedly reduced”. The “pain behaviour after subcutaneous injection of acidic solution” value in assay [1] (pH 6.9, 10 μM APETx2 in injected solution) is reported as “suppressed”. Moreover, the “development of thermal hyperalgesia” value in assay [2] (toxin concomitantly injected with CFA (APETx2 20 μM, PcTx1 120 nM), four hours after CFA) was “does not develop”. Besides, the “thermal hyperalgesia behaviour versus vehicle control animals” value in assay [2] (twenty hours after the injection of CFA, data not represented) was “do not display any behaviour different”.
